We go through 35 compounds from a melting point compilation (Tetko et al.; mined from patent text by program, amines drawn as free bases though some values may be those of a salt).

Take `Cc1ccccc1CCC(=O)N(C)C(C)C(O)c1ccccc1` (stereo not given): the melting point fell in the range of 136 to 137 °C. Consider `CC(CC#N)n1nnc2cc3c(=O)n(C4CC4)nnc3cc2c1=O` (stereo not given), for which the melting point fell in the range of 240 to 242 °C. The same measure for `C[C@@H](SCC(N)=O)[C@](O)(Cn1cncn1)c1ccc(F)cc1F`: 144 to 145 °C; for `O=C(O)c1ccc(OCc2ccccc2)cc1OCc1ccccc1`: 123 to 124 °C; for `O=C1N=c2cc(O)c(O)c(O)c2=NC1=O`: above 350 °C. On to `COc1ccc(CCN(C)CCCC(C#N)(C(=O)OC(C)C)c2ccc(OC)c(OC)c2)cc1OC` (stereo not given), for which the melting point fell in the range of 66 to 67 °C. As for `Nc1nc2ccccc2c2c1nc(CCO)n2CCCNC(=O)c1cc2ccccc2cn1`, the figure is 245 to 246 °C; as for `Cc1c(N2CCC(C(N)c3ccccn3)C2)c(F)c(N)c2c(=O)c(C(=O)O)cn(C3CC3F)c12` (stereo not given), 127 to 129 °C. Take `c1c(NC23CC4CC(CC(C4)C2)C3)nc(NC23CC4CC(CC(C4)C2)C3)nc1N1CCNCC1`: the melting point lay within 168 to 175 °C. Turning to `N[C@H]1CCCC[C@H]1Nc1cc2c(cc1F)c(=O)c(C(=O)O)cn2C1CC1` (relative stereo), the melting point was in the range of 270 to 274 °C. `N#CC(C(=O)Nc1ccccn1)C(=O)c1nn(-c2ccccc2)c2c1CSc1ccccc1-2` (stereo not given) had a melting point of 258 to 260 °C. On to `COC(=O)C(Cc1ccc(O)cc1)NC(=O)C(Cc1ccccc1)NC(=O)c1ccc(OC)cc1` (stereo not given), for which the melting point is 195 to 197 °C.

As for `CCOCCc1c(-c2ccccc2)nc(Cl)n2ncnc12`, the melting point was in the range of 134 to 135 °C. Compound `CCS(=O)(=O)Cc1c(Cl)c(Cl)cc2nc(OC)c(OC)nc12` yielded a melting point of 150 to 152 °C.

In turn, `O=C1CCOc2c1ccc1oc(Cl)cc21` came in with a melting point of 144 to 146 °C. For the compound `CCCCN(C)c1nsc(N)c1C#N`, the melting point was 87 to 89 °C. The same measure for `OCCc1ccc2c(c1)sc1ccc(Cl)cc12`: 98 to 100 °C; for `COc1ccc(-c2nc(SCCOCCn3ccnc3C)[nH]c2-c2ccc(OC)cc2)cc1`: 77 to 79 °C; for `COC(=O)C(=O)CC(=O)c1cc(F)c(OC)c(F)c1`: 185 to 190 °C. `Cc1ccc(-n2cccc2-c2ccc(S(N)(=O)=O)cc2)cc1` yielded a melting point of 131 to 134 °C.

The compound `Cc1cc(C)c(CNc2c(C)nn(C)c2NCC(C)(C)C)c(C)c1` gave a melting point of 114 to 120 °C. For `O=C(NC12CC3CC(CC(C3)C1)C2)n1cc(F)c(=O)[nH]c1=O`, the melting point is above 260 °C. On to `CCNC(=O)N1CCC(c2cc(F)ccc2F)(S(=O)(=O)c2ccc(Cl)cc2)CC1`, for which the melting point was in the range of 172 to 174 °C.

In the case of `CCNC(=O)Nc1cn2ccc(-c3c(C)noc3C)cc2n1`, the melting point is 204 to 206 °C. `CCOCc1nc2c(N)nc3cc(OCCCCCCNC(=O)CCS)ccc3c2n1CC(C)(C)NS(C)(=O)=O` yielded a melting point of 152 to 157 °C. `CCCCc1ccc(NC=C(C#N)C(=O)OCC)nc1` had a melting point of 69 to 73 °C. Take `COc1ccc2cc(CC(C(C)=O)C(=O)OC(C)(C)C)ccc2c1` (stereo not given): the melting point was 63.6 °C. The compound `CCSC1=NCC(=O)N1c1cc(Cl)ccc1C` yielded a melting point of 137 to 139 °C.

For the compound `OCCCCCc1ccc(OCc2coc(/C=C/c3ccccc3)n2)cc1`, the melting point is 93 to 94 °C. For `CCOC(=O)c1nc(N)nc(N)c1-c1ccc(Cl)cc1Cl`, the melting point was 178 °C. Take `CN1CCCc2cc(OC(=O)Nc3ccc(Br)cc3)ccc21`: the melting point came to 155 °C.

Take `Cc1cccc(CCOc2ccc([N+](=O)[O-])cc2)n1`: the melting point was in the range of 61 to 62 °C. The compound `COC(=O)CCc1cc2cc(Cl)ccc2n1S(=O)(=O)c1ccc2nc(N)sc2c1` showed a melting point of 217 to 222 °C.

With `OCCN1CCC(=C2c3sccc3CCn3ncnc32)CC1`, the melting point was 150 °C.

Compound `COc1c(N2C[C@@H](C)N[C@@H](C)C2)c(F)cc2c(=O)c(C(=O)O)cn([C@@H]3C[C@@H]3F)c12` gave a melting point of 129 to 131 °C.

In general, melting point refers to the temperature, or range, at which the solid turns liquid.
